From paper PMC6929321 (Clinical drug investigation, 2019)
Read-outs that look alike come from different tables or passages of the source.

Key:
[1] = type: in vivo, human
[2] = type: in vivo, human; remark: listed apart in the source
[3] = type: in vivo, human; remark: listed apart in the source
[4] = Study P008: adverse events; type: in vivo, human; details: for AE: Abnormal dreams / AE: Diarrhea / AE: Headache / AE: Nausea / AE: Somnolence / AE: Vessel puncture site hematoma / ECI: Euphoric mood / ECI: Hypnagogic hallucination / ECI: Hypnopompic hallucination / ECI: Sleep paralysis / Subjects with ≥ 1 AE: N = 10
[5] = Study P038 diltiazem sub-study: adverse events; type: in vivo, human; details: for AE: Abnormal dreams / AE: Diarrhea / AE: Headache / AE: Nausea / AE: Somnolence / AE: Vessel puncture site hematoma / ECI: Euphoric mood / ECI: Hypnagogic hallucination / ECI: Hypnopompic hallucination / ECI: Sleep paralysis / Subjects with ≥ 1 AE: Study P038 diltiazem sub-study, N = 20
[6] = Study P038 rifampin sub-study: adverse events; type: in vivo, human; details: for AE: Abnormal dreams / AE: Diarrhea / AE: Headache / AE: Nausea / AE: Somnolence / AE: Vessel puncture site hematoma / ECI: Euphoric mood / ECI: Hypnagogic hallucination / ECI: Hypnopompic hallucination / ECI: Sleep paralysis / Subjects with ≥ 1 AE: Study P038 rifampin sub-study, N = 10
[7] = Suvorexant pharmacokinetics across both trials; type: in vivo; details: human, plasma, oral
[8] = Safety assessments across both studies; type: in vivo, human
[9] = in vivo; cited from earlier work
[10] = suvorexant 20 mg + diltiazem, listed as suvorexant
[11] = suvorexant 40 mg alone, listed as suvorexant

SMILES: Cc1ccc(-n2nccn2)c(C(=O)N2CCN(c3nc4cc(Cl)ccc4o3)CC[C@H]2C)c1 [Suvorexant, suvorexant]
- Prolongation (increase) in t½ on co-administration with ketoconazole ([1]; Study P008, suvorexant 4 mg, ketoconazole 400 mg once daily): 8.2 h
- AUC(0-inf) ([1]; human, plasma, po, 4 mg): 2.61 µM·h
- Cmax ([1]; human, plasma, po, 4 mg): 280 nM
- Tmax ([1]; human, plasma, po, 4 mg): 1 h
- half-life ([1]; human, plasma, po, 4 mg): 11.2 h
- Prolongation (increase) in t½ on co-administration with diltiazem ([2]; Study P038 diltiazem sub-study, suvorexant 20 mg, diltiazem 240 mg once daily): 3.7 h
- AUC(0-inf) ([2]; human, plasma, po, 20 mg): 7.88 µM·h
- Cmax ([2]; human, plasma, po, 20 mg): 620 nM
- Tmax ([2]; human, plasma, po, 20 mg): 1.5 h
- half-life ([2]; human, plasma, po, 20 mg): 12.4 h
- Decrease in suvorexant Cmax on co-administration with rifampin ([3]; Study P038, suvorexant 40 mg, rifampin 600 mg once daily): 64%
- AUC(0-inf) ([3]; human, plasma, po, 40 mg): 13.6 µM·h
- Cmax ([3]; human, plasma, po, 40 mg): 850 nM
- Tmax ([3]; human, plasma, po, 40 mg): 2 h
- half-life ([3]; human, plasma, po, 40 mg): 12.9 h
- AE: Abnormal dreams ([4]; suvorexant 4 mg + ketoconazole): 0 (0) n (%)
- AE: Diarrhea ([4]; suvorexant 4 mg + ketoconazole): 0 (0) n (%)
- AE: Headache ([4]; suvorexant 4 mg + ketoconazole): 1 (10) n (%)
- AE: Nausea ([4]; suvorexant 4 mg + ketoconazole): 0 (0) n (%)
- AE: Somnolence ([4]; suvorexant 4 mg + ketoconazole): 7 (70) n (%)
- AE: Vessel puncture site hematoma ([4]; suvorexant 4 mg + ketoconazole): 0 (0) n (%)
- ECI: Euphoric mood ([4]; suvorexant 4 mg + ketoconazole): 0 (0) n (%)
- ECI: Hypnagogic hallucination ([4]; suvorexant 4 mg + ketoconazole): 0 (0) n (%)
- ECI: Hypnopompic hallucination ([4]; suvorexant 4 mg + ketoconazole): 0 (0) n (%)
- ECI: Sleep paralysis ([4]; suvorexant 4 mg + ketoconazole): 0 (0) n (%)
- Subjects with ≥ 1 AE ([4]; suvorexant 4 mg + ketoconazole): 7 (70) n (%)
- AEs considered events of clinical interest (ECIs) ([4]; suvorexant 4 mg alone or with ketoconazole): no AEs were considered to be ECIs
- AE: Abnormal dreams ([4]; suvorexant 4 mg alone): 0 (0) n (%)
- AE: Diarrhea ([4]; suvorexant 4 mg alone): 0 (0) n (%)
- AE: Headache ([4]; suvorexant 4 mg alone): 0 (0) n (%)
- AE: Nausea ([4]; suvorexant 4 mg alone): 0 (0) n (%)
- AE: Somnolence ([4]; suvorexant 4 mg alone): 6 (60) n (%)
- AE: Vessel puncture site hematoma ([4]; suvorexant 4 mg alone): 0 (0) n (%)
- ECI: Euphoric mood ([4]; suvorexant 4 mg alone): 0 (0) n (%)
- ECI: Hypnagogic hallucination ([4]; suvorexant 4 mg alone): 0 (0) n (%)
- ECI: Hypnopompic hallucination ([4]; suvorexant 4 mg alone): 0 (0) n (%)
- ECI: Sleep paralysis ([4]; suvorexant 4 mg alone): 0 (0) n (%)
- Subjects with ≥ 1 AE ([4]; suvorexant 4 mg alone): 6 (60) n (%)
- AE: Abnormal dreams ([5]; suvorexant 20 mg + diltiazem): 1 (5) n (%)
- AE: Diarrhea ([5]; suvorexant 20 mg + diltiazem): 0 (0) n (%)
- AE: Headache ([5]; suvorexant 20 mg + diltiazem): 1 (5) n (%)
- AE: Nausea ([5]; suvorexant 20 mg + diltiazem): 0 (0) n (%)
- AE: Somnolence ([5]; suvorexant 20 mg + diltiazem): 17 (85) n (%)
- AE: Vessel puncture site hematoma ([5]; suvorexant 20 mg + diltiazem): 1 (5) n (%)
- ECI: Euphoric mood ([5]; suvorexant 20 mg + diltiazem): 1 (5) n (%)
- ECI: Hypnagogic hallucination ([5]; suvorexant 20 mg + diltiazem): 0 (0) n (%)
- ECI: Hypnopompic hallucination ([5]; suvorexant 20 mg + diltiazem): 0 (0) n (%)
- ECI: Sleep paralysis ([5]; suvorexant 20 mg + diltiazem): 0 (0) n (%)
- Subjects with ≥ 1 AE ([5]; suvorexant 20 mg + diltiazem): 18 (90) n (%)
- ECI: Euphoric mood [5, 10]: 1 n (%)
- Subjects with ≥ 1 AE [5, 10]: 18 (90%) n (%)
- AE: Abnormal dreams ([5]; suvorexant 20 mg alone): 1 (5) n (%)
- AE: Diarrhea ([5]; suvorexant 20 mg alone): 2 (10) n (%)
- AE: Headache ([5]; suvorexant 20 mg alone): 0 (0) n (%)
- AE: Nausea ([5]; suvorexant 20 mg alone): 2 (10) n (%)
- AE: Somnolence ([5]; suvorexant 20 mg alone): 19 (95) n (%)
- AE: Vessel puncture site hematoma ([5]; suvorexant 20 mg alone): 1 (5) n (%)
- ECI: Euphoric mood ([5]; suvorexant 20 mg alone): 0 (0) n (%)
- ECI: Hypnagogic hallucination ([5]; suvorexant 20 mg alone): 0 (0) n (%)
- ECI: Hypnopompic hallucination ([5]; suvorexant 20 mg alone): 0 (0) n (%)
- ECI: Sleep paralysis ([5]; suvorexant 20 mg alone): 0 (0) n (%)
- Subjects with ≥ 1 AE ([5]; suvorexant 20 mg alone): 20 (100) n (%)
- Subjects with ≥ 1 AE ([5]; suvorexant 20 mg alone, listed as suvorexant): 20 (100%) n (%)
- Duration of ECI euphoric mood ([5]; suvorexant 20 mg plus diltiazem): 1 h
- AE: Abnormal dreams ([6]; suvorexant 40 mg + rifampin): 3 (30) n (%)
- AE: Diarrhea ([6]; suvorexant 40 mg + rifampin): 0 (0) n (%)
- AE: Headache ([6]; suvorexant 40 mg + rifampin): 2 (20) n (%)
- AE: Nausea ([6]; suvorexant 40 mg + rifampin): 0 (0) n (%)
- AE: Somnolence ([6]; suvorexant 40 mg + rifampin): 9 (90) n (%)
- AE: Vessel puncture site hematoma ([6]; suvorexant 40 mg + rifampin): 0 (0) n (%)
- ECI: Euphoric mood ([6]; suvorexant 40 mg + rifampin): 0 (0) n (%)
- ECI: Hypnagogic hallucination ([6]; suvorexant 40 mg + rifampin): 0 (0) n (%)
- ECI: Hypnopompic hallucination ([6]; suvorexant 40 mg + rifampin): 0 (0) n (%)
- ECI: Sleep paralysis ([6]; suvorexant 40 mg + rifampin): 0 (0) n (%)
- Subjects with ≥ 1 AE ([6]; suvorexant 40 mg + rifampin): 10 (100) n (%)
- Subjects with ≥ 1 AE ([6]; suvorexant 40 mg + rifampin, listed as suvorexant): 10 (100%) n (%)
- AE: Abnormal dreams ([6]; suvorexant 40 mg alone): 2 (20) n (%)
- AE: Diarrhea ([6]; suvorexant 40 mg alone): 0 (0) n (%)
- AE: Headache ([6]; suvorexant 40 mg alone): 1 (10) n (%)
- AE: Nausea ([6]; suvorexant 40 mg alone): 0 (0) n (%)
- AE: Somnolence ([6]; suvorexant 40 mg alone): 10 (100) n (%)
- AE: Vessel puncture site hematoma ([6]; suvorexant 40 mg alone): 3 (30) n (%)
- ECI: Euphoric mood ([6]; suvorexant 40 mg alone): 1 (10) n (%)
- ECI: Hypnagogic hallucination ([6]; suvorexant 40 mg alone): 1 (10) n (%)
- ECI: Hypnopompic hallucination ([6]; suvorexant 40 mg alone): 1 (10) n (%)
- ECI: Sleep paralysis ([6]; suvorexant 40 mg alone): 1 (10) n (%)
- Subjects with ≥ 1 AE ([6]; suvorexant 40 mg alone): 10 (100) n (%)
- ECI: Euphoric mood [6, 11]: 1 n (%)
- ECI: Hypnagogic hallucination [6, 11]: 1 n (%)
- ECI: Hypnopompic hallucination [6, 11]: 1 n (%)
- ECI: Sleep paralysis [6, 11]: 1 n (%)
- Subjects with ≥ 1 AE [6, 11]: 10 (100%) n (%)
- Duration of ECI hypnopompic hallucination ([6]; suvorexant 40 mg in the rifampin sub-study): 1 min
- Tmax [7]: 1 to 2 h
- half-life ([7]; 40 mg): 11.2 to 12.9 h
- Changes in vital signs, laboratory safety tests, physical examination, or ECG monitoring ([8]; across both studies): no clinically meaningful changes
- Intensity of AEs ([8]; both trials, the moderate AE was in the P038 diltiazem sub-study): All AEs were mild in intensity, except one moderate AE of headache
- Serious AEs or deaths ([8]; either trial (P008, P038), suvorexant alone or with CYP3A inhibitor/inducer): no serious AEs or deaths
- Tolerability of single suvorexant doses ([8]; healthy subjects, co-administered with/without a CYP3A inhibitor/inducer): generally well tolerated
- Effect on psychomotor performance [9]: no clinically meaningful effect on psycho-motor performance
- Reaction time (choice reaction time and simple reaction time) [9]: statistically significant prolongation in reaction time
